Experiments:
Type in all cases: cell-based
[1] = system: bacterial consortium PB010; test: Continuous co-culture, relative end metabolite concentrations on day 2 and 8 (glycerol supplemented after day 2), PB010; conditions: PB010 (n=3), glycerol supplemented after day 2, day 8 vs day 2
Method: (§1) FIG. 5: Relative end metabolite concentration of the continuously co-cultured bacterial consortia PB002 (n=2) and PB010 (n=3) in bioreactors on day 2 and 8 of co-cultivation. All bioreactors were cultivated for 48 hours in a medium without glycerol.
(§2) The bacterial consortium PB002 and the bacterial consortium PB010 were continuously cultured in bioreactors. Relative end metabolite concentrations were determined on day 2 and 8 of co-cultivation.
(§3) All bioreactors were cultivated for 48 hours in a medium without glycerol.

[2] = system: butyrate producing strains of group A6; test: qPCR quantification of absolute abundances of PB002 strains during continuous culture; conditions: glycerol supplementation
Description: FIG. 2: Absolute abundances of all strains of the continuously cultured consortium PB002 in a bioreactor before and after the supplementation of glycerol. Abundances were quantified using qPCR and are indicated in copies of the 16S rRNA gene/ml of culture for the strains representing A1, A2, A3, A4, A5, A6, A7, A8, and A9.
To test maintenance of all bacterial strains of exemplary consortia PB002 and PB010 in the culture over time, qPCR quantification of the single strains of each consortium was performed using the primers listed in Table 3.
DNA from pellets of the fermentation effluent was extracted using the FastDNA™ SPIN Kit for Soil (MP Bio). Genomic DNA extracts were 10-fold diluted using DNA-free H2O. qPCRs were performed using Mastermix SYBR® green 2× and LowRox (Kapa Biosystems), primers (10 μM) and DNA-free H2O were used in a ABI 7500 FAST thermal cycler (Applied Biosystems) as recommended by the producer and quantified using standards of amplified whole 16S rRNA gene amplicon sequences of the strains cloned into the pGEMT easy vector (Promega, Madison WI, USA). Amplification of the whole 16S rRNA gene was performed with a combination of whole 16S rRNA gene amplification primers using one forward and one reverse primer from the primers listed in Table 4. qPCR quantification of the single strains is shown in copies of genomic 16S rRNA gene per ml of culture (FIG. 2). […]

[3] = system: bacterial consortium PB010; test: Continuous co-culture of consortium PB010 in bioreactors with and without glycerol, absolute metabolite concentrations; conditions: PB010, medium with 30 mM glycerol vs without, day 8 after inoculation
Description: FIG. 4: Absolute metabolite concentration of the continuously co-cultured bacterial consortium PB010 in a bioreactor at day 8 after inoculation: (1) cultured in a culture medium without glycerol, (2) cultured in a culture medium supplemented with glycerol. Absolute metabolites of the two reactors are represented on the x-axis and the concentrations of acetate, propionate, and butyrate are indicated in mM on the y-axis.
The concentrations of the produced metabolites were quantified by refractive index detection HPLC (Thermo Scientific Accela™, ThermoFisher Scientific; HPLC-RI)). HPLC-RI analysis was performed using a SecurityGuard Cartridges Carbo-H (4×3.0 mm) (Phenomenex, Torrence, USA) as guard-column connected to a Rezex ROA-Organic Acid H+ column (300×7.8 mm) (Phenomenex). Bacteria cultures to be analyzed were centrifuged at 14.000-x g for 10 min at 4° C. Filter-sterilized ([…]) supernatants were analyzed. Injection volume for each sample was […]. […] Peaks were analyzed using AgilentEzChrome Elite software (Version: 3.3.2 SP2, Agilent Technologies, Inc. Pleasanton, USA). […]
(§4) The bioreactor was consecutively operated at pH 6.0 for 24 h in order to allow growth of primary degraders and subsequent consumption of the produced intermediate metabolites. Growth was monitored by base consumption and optical density. Metabolites were monitored using HPLC-RI as described above. […]

[4] = system: bacterial consortium PB002; test: Continuous co-culture, relative end metabolite concentrations on day 2 and 8 (glycerol supplemented after day 2), PB002; conditions: PB002 (n=2), glycerol supplemented after day 2, day 8 vs day 2
Method: as §1, §2, §3

[5] = system: bacterial consortium PB002; test: Continuous co-culture of consortium PB002 in a bioreactor, daily metabolite concentrations before and after glycerol supplementation; conditions: PB002, addition of 30 mM glycerol at day 38 of continuous culture
Description: FIG. 1: Daily metabolite concentration of the continuously co-cultured bacterial consortium PB002 in a bioreactor before and after the supplementation of glycerol. Day of sampling from day 30 to day 55 after inoculation are represented on the x-axis and the concentrations of acetate, propionate, butyrate, formate, lactate, and succinate indicated in mM on the y-axis.
The concentrations of the produced metabolites were quantified by refractive index detection HPLC (Thermo Scientific Accela™, ThermoFisher Scientific; HPLC-RI)). […] Bacteria cultures to be analyzed were centrifuged at 14.000-x g for 10 min at 4° C. Filter-sterilized ([…]) supernatants were analyzed. […] Peaks were analyzed using AgilentEzChrome Elite software (Version: 3.3.2 SP2, Agilent Technologies, Inc. Pleasanton, USA). […]
as §4
The consortium PB002 was continuously cultured in a bioreactor during 55 days. Metabolite concentrations were measured daily before and after glycerol supplementation (addition of 30 mM glycerol) at day 38.

## OCC(O)CO [glycerol]
[1]
  butyrate production (relative end metabolite concentration): increase in butyrate production
[2]
  abundance of butyrate producing strains of group A6 (16S rRNA gene copies/ml): positively affects abundance
[3]
  accumulation of succinate, lactate or formate: no accumulation
  butyrate production of the consortium: stimulates butyrate production
[4]
  butyrate production (relative end metabolite concentration): increase in butyrate production
[5]
  accumulation of the intermediate metabolites formate, lactate, succinate: no accumulation
  butyrate production of the consortium: enhanced butyrate production immediately

From US20250082695A1, “USE OF GLYCEROL FOR INCREASING BUTYRATE PRODUCTION BY BACTERIA IN A CONSORTIUM” (PHARMABIOME AG, priority 2019, published 2025)
